Target: T1, phosphorylated ZAP-70 (Homo sapiens, UniProt P43403)
T1 construct: endogenous in cells; host or cells: Jurkat cells (clone E6-1, ATCC TIB-152), pervanadate treated
T1 sequence (P43403 1-619): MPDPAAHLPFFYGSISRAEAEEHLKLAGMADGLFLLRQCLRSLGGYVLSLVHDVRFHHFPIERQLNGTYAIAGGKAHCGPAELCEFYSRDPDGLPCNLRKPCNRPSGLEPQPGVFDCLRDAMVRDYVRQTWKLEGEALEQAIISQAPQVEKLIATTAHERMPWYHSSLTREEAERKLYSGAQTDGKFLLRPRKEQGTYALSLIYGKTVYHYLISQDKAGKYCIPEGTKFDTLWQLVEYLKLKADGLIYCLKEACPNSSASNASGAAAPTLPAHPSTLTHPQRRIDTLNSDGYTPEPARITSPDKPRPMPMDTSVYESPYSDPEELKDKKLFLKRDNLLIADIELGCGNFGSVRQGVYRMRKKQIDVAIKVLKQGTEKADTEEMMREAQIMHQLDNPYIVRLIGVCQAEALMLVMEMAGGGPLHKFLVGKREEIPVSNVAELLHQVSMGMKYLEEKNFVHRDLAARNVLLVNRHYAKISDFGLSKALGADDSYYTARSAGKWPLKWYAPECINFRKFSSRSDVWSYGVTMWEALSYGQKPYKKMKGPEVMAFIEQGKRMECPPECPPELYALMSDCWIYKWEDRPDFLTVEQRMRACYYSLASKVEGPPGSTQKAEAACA
Experiment: Drug pulldown with immobilized aminopyrido-pyrimidin ligand 24 and Western blot analysis
Assay type: binding
Conditions: lysates of non-treated versus pervanadate treated Jurkat cells; Western blot, FIG. 2
Protocol: As biological material cell lysates prepared from non-treated or pervanadate treated Jurkat cells were used. The drug pulldown experiment was performed as described in Example 2 with lysate samples containing 50 mg of protein. Input lysate, flowthrough (non-bound fraction) and SDS-eluates (bound fraction) were separated on a SDS-polyacrylamide gel and transferred to a membrane. The blot was probed first with a general anti-ZAP-70 antibody (2A) and then with an antiphospho-ZAP-70 antibody (2B). Secondary detection antibodies were labeled with fluorescent dyes for detection with the Odyssey infrared imaging system. […]
For Western blot analysis bound proteins were eluted from the affinity matrix and subsequently separated by SDS-Polyacrylamide gel electrophoresis. ZAP-70 was detected with a general monoclonal antibody binding to the non-phosphorylated aminoterminal part of the protein and in addition with a phospho-specific antibody (FIG. 2). […]
Jurkat cells were homogenized in a Potter S homogenizer in lysis buffer: 50 mM Tris-HCl, 0.8% NP40, 5% glycerol, 150 mM NaCl, 1.5 mM MgCl2, 25 mM NaF, 1 mM sodium vanadate, 1 mM DTT, pH 7.5. […] The supernatant was transferred again to a fresh 50 ml falcon tube, the protein concentration was determined by a Bradford assay (BioRad) and samples containing 50 mg of protein per aliquot were prepared. […]

For Cn1c(=O)c(-c2c(Cl)cccc2Cl)cc2cnc(Nc3ccc(CN)cc3)cc21 [aminopyrido-pyrimidin ligand 24, 7-(4-Aminomethyl-phenylamino)-3-(2,6-dichloro-phenyl)-1-methyl-1H-[1,6]naphthyridin-2-one], the “pulldown of ZAP-70 by the immobilized ligand” value was “preferentially pulls down a phosphorylated form of ZAP-70”.
